Source: patent US20170367956A1, “Oral Care Composition” (Colgate-Palmolive Company, priority 2014, published 2017)

Tests used:
HSP-27 = test: Intracellular HSP27 expression in scratched keratinocytes (ELISA); format: cell-based, human; conditions: for HSP-27, intracellular: 50 ppm taurine
Method: Human keratinocytes are cultured in DMEM medium supplemented with 10% FBS and 1% of antibiotic at 37° C. under a 5% CO2 atmosphere in petri dishes. Once the cells are 80-90% confluent, a scratch is made horizontally and a scratch is made vertically across the layer of cells. […] […] The cell suspension is then homogenized with metal beads for 5 minutes and then analyzed for HSP27 using ELISA. In both untreated and arginine treated cells, scratching induces a strong increase in intracellular HSP-27 expression at one hour which declines at 4 hours. […] Without being bound by theory, Applicants believe that it is this initial burst of HSP-27 expression at the time of physical injury that contributes to improved wound healing.

Human keratinocytes = test: Migration of human keratinocytes after scratch (gap closure); format: cell-based; conditions: for % Gap Closure: 100 ppm taurine in DMEM
Method: Human keratinocytes are cultured in DMEM medium supplemented with 10% FBS and 1% of antibiotic at 37° C. under a 5% CO2 atmosphere in petri dishes. Once the cells are 80-90% confluent, a scratch is made horizontally and a scratch is made vertically across the layer of cells. 1 ml of a test solution is added to the culture, and the cells are further incubated and monitored by photomicroscopy to evaluate the closure of the gap created by the scratches. The test solutions compared are 100 ppm Taurine in DMEM medium and untreated DMEM medium. The results are shown in Table 4 below, expressed as the average width of the gap as a percentage of the initial width of the gap (at 0 hours).

HSP 27 = HSP 27 assay in scratched (damaged) human gingival tissue, supernatant level; format: cell-based; conditions: for Concentration of HSP 27: scratched gingival tissue
Method: A scratching protocol was used to damage and stress human gingival tissue (MatTek Corporation). Taurine, at two doses, (50 ppm and 200 ppm), was applied to the culture medium containing the tissue. The treated tissue was incubated at 37° C. to promote tissue healing. Cell supernatant was collected at various time points and the level of HSP 27 was measured.

SMILES | HSP-27, intracellular (HSP-27; time 0 hr) | HSP-27, intracellular (HSP-27; time 1 hr) | Speed of gap closure compared to the DMEM control (in words) (Human keratinocytes; 100 ppm taurine) | % Gap Closure (Human keratinocytes; 24 hr after scratch) | % Gap Closure (Human keratinocytes; 48 hr after scratch) | % Gap Closure (Human keratinocytes; 144 hr after scratch) | Difference in HSP 27 production between the two concentrations of taurine (in words) (HSP 27; 50 ppm versus 200 ppm) | Effect on production of HSP 27 versus untreated, scratched tissue (in words) (HSP 27; both doses tested (50 ppm and 200 ppm), 1 hour and 4 hours) | Concentration of HSP 27 (HSP 27; taurine 50 ppm, incubation time 0 hr) | Concentration of HSP 27 (HSP 27; taurine 50 ppm, incubation time 1 hr) | Concentration of HSP 27 (HSP 27; taurine 50 ppm, incubation time 4 hr) | Concentration of HSP 27 (HSP 27; taurine 200 ppm, incubation time 0 hr) | Concentration of HSP 27 (HSP 27; taurine 200 ppm, incubation time 1 hr) | Concentration of HSP 27 (HSP 27; taurine 200 ppm, incubation time 4 hr) | Intracellular HSP-27 expression versus untreated cells (in words) (HSP-27)
NCCS(=O)(=O)O [Taurine, 2-aminoethanesulfonic acid] | 23.59 ng/mL | 69.65 ng/mL | significantly faster | 23% | 71% | 100% | no significant difference | significantly accelerated the production of HSP 27 | 10.05 ng/mL | 180.33 ng/mL | 269.64 ng/mL | 6.19 ng/mL | 196.95 ng/mL | 275.17 ng/mL | –
N=C(N)NCCC[C@H](N)C(=O)O [arginine] | – | – | – | – | – | – | – | – | – | – | – | – | – | – | significantly higher expression of HSP-27
